The values that follow come from patent US9617244B2, “Antibacterial quinoline derivatives” (JANSSEN PHARMACEUTICA NV, priority 2012, dated 2017).

Data set [1] has as its system Staphylococcus aureus (ATCC29213). Put plainly: In-vitro anti-bacterial activity, microtitre plate assay, IC90 determination (non-mycobacterial strains). Type of data set: cell-based. The note with it: 90% inhibitory concentration for bacterial growth, resazurin fluorescence; for IC90 STA B29213: 24 hours; for IC90: Staphylococcus aureus, ATCC29213, 24 h, read-out: IC90 STA B29213. The method, boiled down: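 Growth inhibition measured fluorometrically with resazurin (530/590 nm) after overnight 37 °C incubation under normal atmosphere. Bacteria added at roughly 100 TCID50 per well in Mueller-Hinton broth to five-fold compound dilution series; IC90 reported in μg/ml.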
A general note: Alamar Blue is a resazurin reagent that responds to reducing activity.

Data set [2] has as its system Mycobacterium smegmatis (ATCC607). Briefly: In-vitro anti-bacterial activity against strain M. Smegmatis ATCC607. The settings on record: 90% inhibitory concentration for bacterial growth, Alamar Blue fluorescence; for IC90 MSM 607: 48 hours. Type of data set: cell-based. In a few lines: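 IC90 (μg/ml) derived from Alamar Blue fluorescence (530/590 nm) after 48 h growth at 37 °C under 5% CO2. About 250 CFU per well in Mueller-Hinton broth faced five-fold serial compound dilutions in BSA-containing wells.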

SMILES strings stand for the structures. ≈ marks a conversion by molar mass, not a printed value. Where a name gives a salt, the structure may show the parent alone.

As to `COc1nc2ccc(S(C)(=O)=O)cc2cc1C(c1ccc(Cl)cc1)C1(O)CCNC(c2ccc(F)cc2C)C1` (centres unmarked) [Compound 216], the melting point stood at 152 °C. Also, in data set [1], the “IC90 STA B29213” value was 7.16 µg/mL (≈ 12.6 µM). Besides, the “IC90 MSM 607” value in data set [2] amounted to 5.69 µg/mL (≈ 10 µM).
The matching figures for `COc1nc2ccc(SC)cc2cc1C(c1ccccc1)C1(O)CCNC(c2ccc(F)cc2C)C1` (centres unmarked) [Compound 198]: 187 °C, 3.17 µg/mL (≈ 6.31 µM) and 3.17 µg/mL (≈ 6.31 µM).
`COc1nc2ccc(Cl)cc2cc1C(c1ccc(Cl)cc1)C1(O)CCNC(CO)C1` (centres unmarked) [Compound 435] returned a melting point of 140 °C. The IC90 in data set [1] came out at 5.63 µg/mL (≈ 12.6 µM). In data set [2] (Mycolicibacterium smegmatis, ATCC607, 48 h, read-out: IC90 MSM 607), the concentration for an effect of 90% (IC90) was determined as 3.99 µg/mL (≈ 8.92 µM).
In turn, `COc1nc2ccc(S(C)(=O)=O)cc2cc1C(c1ccccc1)C1(O)CCNC(c2ccc(F)cc2C)C1` (centres unmarked) [Compound 251] registered a melting point of 183 °C. Further, the “IC90 STA B29213” value in data set [1] stood at 13.43 µg/mL (≈ 25.1 µM). In data set [2], the “IC90 MSM 607” value was found to be 10.67 µg/mL (≈ 20 µM).
For the compound `COc1nc2ccc(S(C)(=O)=O)cc2cc1C(c1ccc(Cl)cc1)C1(O)CCNC(Cc2ccc(F)cc2)C1` (centres unmarked) [Compound 391], the melting point is 120 °C. The “IC90 STA B29213” value in data set [1] is 3.59 µg/mL (≈ 6.31 µM). The “IC90 MSM 607” value in data set [2] was determined as 1.80 µg/mL (≈ 3.16 µM).
`COc1nc2ccc(S(C)(=O)=O)cc2cc1C(c1ccccc1)C1(O)CCNC(c2ccc(F)cc2C)C1` (centres unmarked) [Compound 185] returned a melting point of 162 °C. Further, the “IC90 STA B29213” value in data set [1] came to 13.43 µg/mL (≈ 25.1 µM). In data set [2], the “IC90 MSM 607” value is 8.47 µg/mL (≈ 15.8 µM).
`COc1nc2ccc(S(C)(=O)=O)cc2cc1C(c1cccc(Cl)c1)C1(O)CCNC(c2ccc(F)cc2C)C1` (centres unmarked) [Compound 171] gave a melting point of 161 °C. The “IC90 STA B29213” value in data set [1] was 7.16 µg/mL (≈ 12.6 µM). Further, the “IC90 MSM 607” value in data set [2] turned out to be 5.69 µg/mL (≈ 10 µM).
As for `CSc1ccc2[nH]c(=O)c(C(c3cccc(Cl)c3)C3(O)CCNC(c4ccc(F)cc4C)C3)cc2c1` (centres unmarked) [Compound 176], the melting point was 192 °C. The “IC90 STA B29213” value in data set [1] stood at 3.30 µg/mL (≈ 6.31 µM). The “IC90 MSM 607” value in data set [2] is 3.30 µg/mL (≈ 6.31 µM).
`COc1nc2ccc(Cl)cc2cc1C(c1ccc(Cl)cc1)C1(O)CCNCC1Cc1ccccn1` (centres unmarked) [Compound 439] showed a melting point of 132 °C. Besides, in data set [1], the “IC90 STA B29213” value was 12.77 µg/mL (≈ 25.1 µM).
In turn, `COc1nc2ccc(S(C)(=O)=O)cc2cc1C(c1cccc(Cl)c1)C1(O)CCNC(c2ccc(F)cc2C)C1` (centres unmarked) [Compound 172] yielded a melting point of 170 °C. In addition, the “IC90 STA B29213” value in data set [1] turned out to be 7.16 µg/mL (≈ 12.6 µM). The “IC90 MSM 607” value in data set [2] turned out to be 3.59 µg/mL (≈ 6.31 µM).
Turning to `COc1nc2ccc(Cl)cc2cc1C(c1ccc(Cl)cc1)C1(O)CCNCC1F` (centres unmarked) [Compound 452], the melting point was 114 °C. Further, the “IC90 STA B29213” value in data set [1] was determined as 9.75 µg/mL (≈ 22.4 µM). The “IC90 MSM 607” value in data set [2] was 4.35 µg/mL (≈ 9.99 µM).
`CSc1ccc2[nH]c(=O)c(C(c3cccc(Cl)c3)C3(O)CCNC(c4ccc(F)cc4C)C3)cc2c1` (centres unmarked) [Compound 174] yielded a melting point of 171 °C. The “IC90 STA B29213” value in data set [1] was determined as 3.30 µg/mL (≈ 6.31 µM). Besides, the “IC90 MSM 607” value in data set [2] amounted to 3.30 µg/mL (≈ 6.31 µM).
`O=c1[nH]c2ccc(Br)cc2cc1C(c1ccc(Cl)cc1)C1(O)CCNC(Cc2ccccc2)C1` (centres unmarked) [Compound 81] registered a melting point of 233 °C. The IC90 in data set [1] worked out at 8.52 µg/mL (≈ 15.8 µM).
For the compound `COc1nc2ccc(Cl)cc2cc1C(c1ccc(Cl)cc1)C1(O)CCNCC1c1cccnc1` (centres unmarked) [Compound 445], the melting point was determined as 154 °C. Moreover, the “IC90 STA B29213” value in data set [1] amounted to 3.50 µg/mL (≈ 7.08 µM).
In turn, `O=c1[nH]c2ccc(Cl)cc2cc1C(c1ccc(Cl)cc1)C1(O)CCNC(CO)C1` (centres unmarked) [Compound 20] displayed a melting point of 232 °C. In addition, in data set [1], the IC90 is above 10.9 µg/mL.
Consider `COc1nc2ccc(Cl)cc2cc1C(c1ccc(Cl)cc1)C1(O)CCNCC1Cc1ccccn1` (centres unmarked) [Compound 438], for which the melting point is 188 °C. Also, in data set [1], the “IC90 STA B29213” value was determined as 3.21 µg/mL (≈ 6.31 µM).
For the compound `COc1nc2ccc(Cl)cc2cc1C(c1ccc(Cl)cc1)C1(O)CCNCC1c1cccnc1` (centres unmarked) [Compound 443], the melting point worked out at 156 °C. Moreover, the “IC90 STA B29213” value in data set [1] is 4.41 µg/mL (≈ 8.92 µM).
The compound `COc1nc2ccc(Br)cc2cc1C(c1ccc(Cl)cc1)C1(O)CCNC(Cc2ccccc2)C1` (centres unmarked) [Compound 71] gave a melting point of 138 °C. The “IC90 STA B29213” value in data set [1] came to 4.38 µg/mL (≈ 7.94 µM).
The like results for `COc1nc2ccc(Cl)cc2cc1C(c1ccc(Cl)cc1)C1(O)CCNCC1c1cccnc1` (centres unmarked) [Compound 444] were, in that order, 172 °C and 12.42 µg/mL (≈ 25.1 µM).
`COc1nc2ccc(F)cc2cc1C(c1ccc(Cl)cc1)C1(O)CCN(C(C)c2ccccc2)C(CO)C1` (centres unmarked) [Compound 436] returned a melting point of 135 °C. The 90% effect concentration (IC90) in data set [1] came out at 13.4 µg/mL (≈ 25.1 µM).
For the compound `COc1nc2ccc(F)cc2cc1C(c1ccccc1)C1(O)CCNC(CO)C1` (centres unmarked) [Compound 29], the melting point worked out at 135 °C. Besides, the IC90 in data set [1] is above 9.96 µg/mL.
`COc1nc2ccc(Br)cc2cc1C(c1ccc(Cl)cc1)C1(O)CCNC(Cc2ccccc2)C1` (centres unmarked) [Compound 70] displayed a melting point of 112 °C. Also, the “IC90 STA B29213” value in data set [1] was determined as 4.38 µg/mL (≈ 7.94 µM).
For `COc1nc2ccc(Br)cc2cc1C(c1ccc(Cl)cc1)C1(O)CCNC(Cc2ccc(F)cc2F)C1` (centres unmarked) (as salt: trifluoroacetate) [Compound 319], the melting point is 169 °C.
`COc1nc2ccc(Cl)cc2cc1C(c1ccc(S(C)(=O)=O)cc1)C1(O)CCNC(c2ccc(F)cc2C)C1` (centres unmarked) (as salt: fumarate) [Compound 368] had a melting point of 144 °C.
Compound `COc1nc2ccc(Br)cc2cc1C(c1cccc(Cl)c1)C1(O)CCNC(Cc2ccccc2)C1` (centres unmarked) (as salt: fumarate) [Compound 35] returned a melting point of 145 °C.
With `COc1nc2ccc(Cl)cc2cc1C(c1ccc(Cl)cc1)C1(O)CCNCC1c1ccccc1` (centres unmarked) (as salt: fumarate) [Compound 410], the melting point was found to be 155 °C.
Turning to `Cc1cc(F)ccc1C1CC(O)(C(c2ccc(Cl)cc2)c2cc3cc(Br)ccc3[nH]c2=O)CCN1` (centres unmarked) (as salt: hydrochloride) [Compound 106], the melting point is above 250 °C.
`CS(=O)(=O)c1ccc2[nH]c(=O)c(C(c3ccc(Cl)cc3)C3(O)CCNC(Cc4ccc(F)c(F)c4)C3)cc2c1` (centres unmarked) (as salt: hydrochloride) [Compound 212] had a melting point above 250 °C.
For `COc1nc2ccc(Cl)cc2cc1C(c1ccc(Cl)cc1)C1(O)CCNC(c2ccccc2)C1` (centres unmarked) (as salt: fumarate) [Compound 405], the melting point was 184 °C.
`O=c1[nH]c2ccc(Br)cc2cc1C(c1ccc(Cl)cc1)C1(O)CCNCC1Cc1cccc(F)c1` (centres unmarked) (as salt: hydrochloride) [Compound 49] registered a melting point of 183 °C.
The compound `COc1nc2ccc(Cl)cc2cc1C(c1ccc(Cl)cc1)C1(O)CCNCC1c1ccccc1` (centres unmarked) (as salt: fumarate) [Compound 411] had a melting point of 168 °C.
In turn, `CSc1ccc2[nH]c(=O)c(C(c3ccc(Cl)cc3)C3(O)CCNC(Cc4ccc(F)cc4)C3)cc2c1` (centres unmarked) (as salt: hydrochloride) [Compound 281] gave a melting point above 250 °C.
`COc1nc2ccc(Cl)cc2cc1C(c1ccc(Cl)cc1)C1(O)CCNCC1c1ccccc1` (centres unmarked) (as salt: fumarate) [Compound 409] showed a melting point of 190 °C.
`O=c1[nH]c2ccc(Br)cc2cc1C(c1ccc(Cl)cc1)C1(O)CCNC(Cc2ccc(F)cc2)C1` (centres unmarked) (as salt: hydrochloride) [Compound 365] had a melting point of 242 °C.
Turning to `COc1nc2ccc(SC)cc2cc1C(c1ccc(Cl)cc1)C1(O)CCNCC1Cc1cccc(F)c1` (centres unmarked) (as salt: fumarate) [Compound 286], the melting point was 177 °C.
As to `COc1nc2ccc(Br)cc2cc1C(c1cccnc1)C1(O)CCNC(Cc2ccccc2)C1` (centres unmarked) (as salt: fumarate) [Compound 428], the melting point came out at 217 °C.
In turn, `CC1CC(O)(C(c2ccc(Cl)cc2)c2cc3cc(Br)ccc3[nH]c2=O)CCN1` (centres unmarked) (as salt: hydrochloride) [Compound 130] came in with a melting point of 200 °C.
In turn, `COc1nc2ccc(Br)cc2cc1C(c1cccc(Cl)c1)C1(O)CCNC(c2ccc(F)cc2C)C1` (centres unmarked) (as salt: fumarate) [Compound 149] showed a melting point of 178 °C.
Take `COc1nc2ccc(Cl)cc2cc1C(c1ccc(SC)cc1)C1(O)CCNC(c2ccc(F)cc2C)C1` (centres unmarked) (as salt: fumarate) [Compound 353]: the melting point is 166 to 168 °C.
`COc1nc2ccc(Cl)cc2cc1C(c1ccc(S(C)(=O)=O)cc1)C1(O)CCNC(c2ccc(F)cc2C)C1` (centres unmarked) (as salt: fumarate) [Compound 369] came in with a melting point of 138 °C.
On the same count and under the same terms, the figure for `COc1nc2ccc(Cl)cc2cc1C(c1ccc(Cl)cc1)C1(O)CCNC(Cc2ccc(F)cc2)C1` (centres unmarked) (as salt: fumarate) [Compound 345] is 152 to 154 °C; for `COc1nc2ccc(SC)cc2cc1C(c1cccc(Cl)c1)C1(O)CCNC(c2ccc(F)cc2C)C1` (centres unmarked) (as salt: fumarate) [Compound 164] it is 170 °C.
The compound `CSc1ccc2[nH]c(=O)c(C(c3ccc(Cl)cc3)C3(O)CCNC(c4ccc(F)cc4C)C3)cc2c1` (centres unmarked) (as salt: hydrochloride) [Compound 266] came in with a melting point above 250 °C.
For `COc1nc2ccc(F)cc2cc1C(c1ccc(Cl)cc1)C1(O)CCNC(Cc2ccccc2)C1` (centres unmarked) (as salt: fumarate) [Compound 54], the melting point is 209 °C.

A word on the melting point: it is the temperature, or range, at which the solid turns liquid. A word on the IC90: it is the concentration at which the effect reaches the 90% level.
